Like-named read-outs stand apart in the source and are kept apart here.

Results on 14 molecules are retold here after patent US8946413B2 (Pfizer Inc., priority 2008, dated 2015).

The target of the assay is T1, CCR2 (Homo sapiens, UniProt P41597).
T1 construct: (leukophoresis pack); host or cells: human peripheral blood mononuclear cells (PBMCs) from a normal human leukophoresis pack
In words: hCCR2 (125-I hMCP-1) small molecule binding assay on human PBMCs. The settings on record: 125I-MCP-1, human PBMCs. The source says: The CCR2 antagonist activity of compounds of the invention can be reported as the inhibitor concentration required for 50% inhibition (IC50 values) of specific binding in receptor binding assays using 125I-labeled MCP-1, as ligand, and Peripheral Blood Mononuclear Cells (PBMCs) prepared from normal human whole blood via density gradient centrifugation. Specific binding is defined as the total binding (e.g., total cpm on filters) minus the non-specific binding. Non-specific binding is defined as the amount of cpm still defected in the presence of excess unlabeled competitor (e.g., MCP-1),
Human PBMCs were used to test compounds of the invention in a binding assay. For example, 200,000 to 500,000 cells were incubated with 0.1 to 0.2 nM 125I-labeled MCP-1, with or without unlabeled competitor (10 nM MCP-1) or various concentrations of compounds to be tested. 125I-labeled MCP-1, were prepared by suitable methods or purchased from commercial vendors (Perkin Elmer, Boston Mass.). The binding reactions were performed in 50 to 250 μL of a binding buffer consisting of […] pH 7.2, and 0.1% BSA (bovine serum albumin), for 30 minutes at room temperature. The binding reactions were terminated by harvesting the membranes by rapid filtration through glass fiber filters (Perkin Elmer) which was presoaked in 0.3% polyethyleneimine or Phosphate Buffered Saline (PBS). The filters were rinsed with approximately 600 μL of binding buffer containing, 0.5 M NaCl or PBS, then dried, and the amount of bound radioactivity was determined by counting on a Gamma Counter (Perkin Elmer).
More specifically, the following assay may be employed to determine IC50 values for the compounds of the present invention.
hCCR2 (125-I hMCP-1) Small Molecule Binding Assay
Normal human leukophoresis pack contents, available from Biological Specialty Corporation, Colmar, Pa., is diluted 1:1 with PBS, divided into 50 ml conical tubes (preferably less than 40 mls per tube), and underlayed with 10 mls of Ficoll-Paque PLUS (GE Healthcare 17-1440-02). The tubes are centrifuged at 2800 rpm in a clinical centrifuge at room temperature for 30 mins, with no brake. The plasma layer is suctioned, and the buffycoat layer is collected. The collected buffycoat layer is washed twice with 50 mls PBS, and centrifuged at 1400 rpm with brake. The cells are counted. The cells are then diluted to 1×10^7 cells per ml in binding buffer.
96 well plates (such as, for example, Millipore MultiScreen96 plates) are pre-wet with about 100 μl binding buffer (RPMI+0.1% BSA+20 mM HEPES), and blotted just prior to compound addition.
5 μl of 50 μM test compounds in 100% DMSO are dotted onto U-bottom polypropylene 96-well plates.
245 μl per well of Binding Buffer is added to each well for 1 μM compound concentration in 2% DMSO.
50 μl of 1 μM compound is transferred to pre-wetted Millipore plates. 50 μl per well of 1×10E7 cells per ml of freshly prepared human PBMCs are added.
The samples are pre-incubated at room temperature for 30 minutes or 1 hour.
50 μl of 450 pM 125-I-hMCP-1 (Perkin-Elmer/NEN cat#NEX332025UC) is added for a final concentration 125-I-hMCP-1 of 150 pM per well.
The final test compound concentration is 0.333 uM in 150 μl total volume with 0.67% DMSO in all wells. Controls for this assay consist of 0% inhibition and 100% inhibition with 1 uM hMCP-1 (saturating conditions). All wells are run in duplicate. Controls may be in replicates of eight.
The samples are incubated at room temperature for 30 minutes.
The buffer is suctioned through the Millipore plates. The plates are washed three times with Wash Buffer (PRMI+0.1% BSA+20 mM HEPES+ 0.4 M NaC).
The plate underdrain is removed. The plate filters are allowed to dry. The filters are then punched out into plastic tubes.
Finally, the sample is counted an a Gamma Counter.
All IC50 plates were repeated for an n=2.
The following table summarizes the IC50 values identified through the described assay.

The mark [1] stands for this setting: 30 min preincubation, read-out: IC50 (nM) 30 min preinc.
Where [2] appears, read: 1 hr preincubation, read-out: IC50 (nM) 1 hr preinc.

T1 sequence (P41597 whole entry): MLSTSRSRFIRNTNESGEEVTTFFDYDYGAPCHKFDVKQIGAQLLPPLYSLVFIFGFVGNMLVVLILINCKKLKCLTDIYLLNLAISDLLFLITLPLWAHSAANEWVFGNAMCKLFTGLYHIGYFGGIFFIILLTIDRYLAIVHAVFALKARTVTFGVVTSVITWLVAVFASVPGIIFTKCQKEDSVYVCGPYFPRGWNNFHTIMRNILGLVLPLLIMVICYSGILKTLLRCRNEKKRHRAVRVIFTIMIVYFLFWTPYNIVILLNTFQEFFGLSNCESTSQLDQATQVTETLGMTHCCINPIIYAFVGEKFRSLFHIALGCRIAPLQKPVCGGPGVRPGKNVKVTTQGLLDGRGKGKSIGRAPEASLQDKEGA

For orientation: IC50 means the point on the concentration scale where inhibition reaches its midpoint. In the case of `CO[C@@H]1COCC[C@@H]1N[C@@H]1CC[C@](CC(F)F)(C(=O)N2C[C@@H]3C[C@H]2CN3c2cc(C(F)(F)F)ncn2)C1` [Example 24, 1,5-anhydro-2,3-dideoxy-3-{[(1R,3S)-3-(2,2-difluoroethyl)-3-({(1S,4S)-5-[6-(trifluoromethyl)pyrimidin-4-yl]-2,5-diazabicyclo[2.2.1]hept-2-yl}carbonyl)cyclopentyl]amino}-4-O-methyl-D-erythro-pentitol], the IC50 under setting [1] is 79.7 nM and the half-inhibitory concentration (IC50) under setting [2] was found to be 8.87 nM.

With `CO[C@@H]1COCC[C@@H]1N[C@@H]1CC[C@](CC(F)F)(C(=O)N2C[C@@H]3C[C@H]2CN3c2ccnc(C(F)(F)F)c2)C1` [Example 26, 1,5-anhydro-2,3-dideoxy-3-{[(1R,3S)-3-(2,2-difluoroethyl)-3-({(1S,4S)-5-[2-(trifluoromethyl)pyridin-4-yl]-2,5-diazabicyclo[2.2.1]hept-2-yl}carbonyl)cyclopentyl]amino}-4-O-methyl-D-erythro-pentitol], the IC50 under setting [1] stood at 29.3 nM and the 50% inhibitory concentration (IC50) under setting [2] was 7.85 nM. Consider `CO[C@@H]1COCC[C@@H]1N[C@@H]1CC[C@@](C(=O)N2C[C@@H]3C[C@H]2CN3c2nccc(C(F)(F)F)c2F)(C(C)C)C1` [Example 20, 1,5-anhydro-2,3-dideoxy-3-{[(1R,3S)-3-({(1S,4S)-5-[3-fluoro-4-(trifluoromethyl)pyridin-2-yl]-2,5-diazabicyclo[2.2.1]hept-2-yl}carbonyl)-3-isopropylcyclopentyl]amino}-4-O-methyl-D-erythro-pentitol], for which the half-inhibitory concentration (IC50) under setting [1] was determined as 8.59 nM.

Consider `CO[C@@H]1COCC[C@@H]1N[C@@H]1CC[C@](CC(F)F)(C(=O)N2C[C@@H]3C[C@H]2CN3c2cncc(C(F)(F)F)n2)C1` [Example 29, 1,5-anhydro-2,3-dideoxy-3-{[(1R,3S)-3-(2,2-difluoroethyl)-3-({(1S,4S)-5-[6-(trifluoromethyl)pyrazin-2-yl]-2,5-diazabicyclo[2.2.1]hept-2-yl}carbonyl)cyclopentyl]amino}-4-O-methyl-D-erythro-pentitol], for which the IC50 under setting [2] is 2.75 nM. Turning to `CO[C@@H]1COCC[C@@H]1N[C@@H]1CC[C@](CC(F)(F)F)(C(=O)N2C[C@@H]3C[C@H]2CN3c2cc(C(F)(F)F)ncn2)C1` [Example 32, 1,5-anhydro-2,3-dideoxy-4-O-methyl-3-{[(1R,3S)-3-(2,2,2-trifluoroethyl)-3-({(1S,4S)-5-[6-(trifluoromethyl)pyrimidin-4-yl]-2,5-diazabicyclo[2.2.1]hept-2-yl}carbonyl)cyclopentyl]amino}-D-erythro-pentitol], the IC50 reads like this: under setting [1], 13.8 nM; under setting [2], 11.7 nM.

On to `CO[C@@H]1COCC[C@@H]1N[C@@H]1C=C[C@@](C(=O)N2C[C@@H]3C[C@H]2CN3c2cccc(C(F)(F)F)n2)(C(C)C)C1` [Example 42, 1,5-anhydro-2,3-dideoxy-3-{[(1S,4S)-4-isopropyll-4-({(1S,4S)-5-[6-(trifluoromethyl)pyridin-2-yl]-2,5-diazabicyclo[2.2.1]hept-2-yl}carbonyl)cyclopent-2-en-1-yl]amino}-4-O-methyl-D-erythro-pentitol], for which the 50% inhibitory concentration (IC50) under setting [1] was 70.9 nM.

For the molecule `CO[C@@H]1COCC[C@@H]1N[C@@H]1CC[C@@](C(=O)N2C[C@@H]3C[C@H]2CN3c2cncc(C(F)(F)F)n2)(C(C)(C)O)C1` [Example 59, 1,5-anhydro-2,3-dideoxy-3-{[3-(1-hydroxy-1-methylethyl)-3-({5-[6-(trifluoromethyl)pyrazin-2-yl]-2,5-diazabicyclo[2.2.1]hept-2-yl}carbonyl)cyclopentyl]amino}-4-O-methylpentitol], the IC50 under setting [1] turned out to be 17.7 nM.

Consider `CO[C@@H]1COCC[C@@H]1N[C@@H]1CC[C@@](C(=O)N2C[C@@H]3C(F)[C@H]2CN3c2cc(C(F)(F)F)ccn2)(C(C)C)C1` (stereo partly drawn) [Example 69, ((1R,4R)-7-fluoro-5-(4-(trifluoromethyl)pyridin-2-yl)-2,5-diaza-bicyclo[2.2.1]heptan-2-yl)((1S,3R)-1-isopropyl-3-((3S,4S)-3-methoxy-tetrahydro-2H-pyran-4-ylamino)cyclopentyl)methanone], for which, under setting [1], the IC50 came to 4.3 nM. For `CO[C@@H]1COCC[C@@H]1N[C@@H]1CC[C@](CC(F)(F)F)(C(=O)N2C[C@@H]3C[C@H]2CN3c2cc(C(F)(F)F)cnn2)C1` [Example 39, 1,5-anhydro-2,3-dideoxy-4-O-methyl-3-{[(1R,3S)-3-(2,2,2-trifluoroethyl)-3-({(1S,4S)-5-[5-(trifluoromethyl)pyridazin-3-yl]-2,5-diazabicyclo[2.2.1]hept-2-yl}carbonyl)cyclopentyl]amino}-D-erythro-pentitol], the IC50 runs as follows: under setting [1], 82.9 nM; under setting [2], 5.81 nM. Taken in the same sequence, the figures for `CO[C@@H]1COCC[C@@H]1N[C@@H]1CC[C@@](C(=O)N2C[C@@H]3C[C@H]2CN3c2ccnc(C(F)(F)F)c2)(C(C)C)C1` [Example 17, 1,5-anhydro-2,3-dideoxy-3-{[(1R,3S)-3-isopropyl-3-({(1S,4S)-5-[2-(trifluoromethyl)pyridin-4-yl]-2,5-diazabicyclo[2.2.1]hept-2-yl}carbonyl)cyclopentyl]amino}-4-O-methyl-D-erythro-pentitol] were 13.7 nM and 5.8 nM. Regarding `CO[C@@H]1COCC[C@@H]1N[C@@H]1CC[C@](CC(F)F)(C(=O)N2C[C@@H]3C[C@H]2CN3c2cc(C(F)(F)F)cnn2)C1` [Example 31, 1,5-anhydro-2,3-dideoxy-3-{[(1R,3S)-3-(2,2-difluoroethyl)-3-({(1S,4S)-5-[5-(trifluoromethyl)pyridazin-3-yl]-2,5-diazabicyclo[2.2.1]hept-2-yl}carbonyl)cyclopentyl]amino}-4-O-methyl-D-erythro-pentitol], under setting [2], the half-inhibitory concentration (IC50) was 6.35 nM. With `CO[C@@H]1COCC[C@@H]1N[C@@H]1CC[C@@](C(=O)N2C[C@@H]3C[C@H]2CN3c2ccnc(C(F)(F)F)n2)(C2(O)CCC2)C1` [Example 48, 1,5-anhydro-2,3-dideoxy-3-{[(1R,3S)-3-(1-hydroxycyclobutyl)-3-({(1S,4S)-5-[2-(trifluoromethyl)pyrimidin-4-yl]-2,5-diazabicyclo[2.2.1]hept-2-yl}carbonyl)cyclopentyl]amino}-4-O-methyl-D-erythro-pentitol], the IC50 under setting [1] was determined as 25.3 nM.

Regarding `CO[C@@H]1COCC[C@@H]1N[C@@H]1CC[C@@](C(=O)N2C[C@@H]3C[C@H]2CN3c2cccc(C(F)(F)F)c2)(C(C)C)C1` [Example 22, 1,5-anhydro-2,3-dideoxy-3-{[(1R,3S)-3-isopropyl-3-({(1S,4S)-5-[3-(trifluoromethyl)phenyl]-2,5-diazabicyclo[2.2.1]hept-2-yl}carbonyl)cyclopentyl]amino}-4-O-methyl-D-erythro-pentitol], the IC50 under setting [2] was 1.1 nM. As to `CO[C@@H]1COCC[C@@H]1N[C@@H]1CC[C@@](C(=O)N2C[C@@H]3[C@H](O)[C@H]2CN3c2cc(C(F)(F)F)ccn2)(C(C)C)C1` [Example 68, ((1R,4R,7S)-7-hydroxy-5-(4-(trifluoromethyl)pyridin-2-yl)-2,5-diaza-bicyclo[2.2.1]heptan-2-yl)((1S,3R)-1-isopropyl-3-((3S,4S)-3-methoxy-tetrahydro-2H-pyran-4-ylamino)cyclopentyl)methanone], the IC50 under setting [1] is 5.4 nM.
